Patent EP4583874B1, “MULTITARGET NUCLEAR RECEPTOR LIGANDS BASED ON 2-(4-(QUINOLIN-2-YLOXY)PHENOXY)PROPANOIC ACID AND 2-(4-(QUINOXALIN-2-YLOXY)PHENOXY)PROPANOIC ACID FOR THE TREATMENT OF METABOLIC AND LIVER DISEASES” (CHARLES UNIVERSITY, FACULTY OF PHARMACY IN HRADEC KRALOVE, priority 2022, dated 2024)

How the values were obtained:
Format in all cases: cell-based
[1] = target: T1, human PPARγ (Homo sapiens, UniProt P37231); test: PPARγ luciferase reporter gene assay (pGAL4-PPARγ / pGL5-UAS 9x) in HepG2 cells; settings: HepG2, 24 h
T1 construct: DNA constructs encoding human LBD domains of human PPARα, PPARγ, of LXRα (pGAL4-PPARα, pGAL4-PPARγ, pGAL4-LXRα); expressed in transfected cells; host or cells: HepG2
T1 sequence (P37231 238-503 limits assumed): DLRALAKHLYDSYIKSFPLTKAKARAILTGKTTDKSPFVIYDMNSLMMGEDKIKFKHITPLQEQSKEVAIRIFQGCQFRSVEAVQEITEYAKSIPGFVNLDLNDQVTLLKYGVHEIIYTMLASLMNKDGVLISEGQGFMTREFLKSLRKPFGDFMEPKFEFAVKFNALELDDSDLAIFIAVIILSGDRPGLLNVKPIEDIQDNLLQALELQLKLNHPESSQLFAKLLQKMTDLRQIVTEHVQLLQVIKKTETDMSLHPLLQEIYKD

[2] = target: T2, human FXR (Homo sapiens, UniProt Q96RI1); test: FXR responsive luciferase reporter gene assay (FXRE-luc + human FXR expression construct) in HepG2 cells; settings: HepG2, 24 h
T2 construct: expressed in transfected cells; host or cells: HepG2
T2 sequence (Q96RI1 1-486): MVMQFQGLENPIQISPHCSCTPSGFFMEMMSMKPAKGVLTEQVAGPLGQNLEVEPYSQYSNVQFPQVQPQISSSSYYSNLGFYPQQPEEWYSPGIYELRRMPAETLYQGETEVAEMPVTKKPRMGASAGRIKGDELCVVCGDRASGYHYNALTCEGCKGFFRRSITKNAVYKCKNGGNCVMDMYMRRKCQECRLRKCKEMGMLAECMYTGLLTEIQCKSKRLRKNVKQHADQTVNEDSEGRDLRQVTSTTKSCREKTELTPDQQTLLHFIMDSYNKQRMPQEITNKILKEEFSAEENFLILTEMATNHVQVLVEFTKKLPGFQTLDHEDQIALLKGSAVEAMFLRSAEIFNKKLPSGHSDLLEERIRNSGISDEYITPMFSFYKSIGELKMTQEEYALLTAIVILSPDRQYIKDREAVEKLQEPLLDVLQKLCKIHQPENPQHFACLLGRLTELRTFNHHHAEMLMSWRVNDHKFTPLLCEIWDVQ
Source text: (§1) In HepG2 cells, luciferase gene reporter assays have been performed with the transiently transfected reporter gene luciferase construct with the UAS yeast binding site interacting with GAL4 protein (pGL5-UAS 9x, Promega). DNA constructs encoding human LBD domains of human PPARα, PPARγ, of LXRα (pGAL4-PPARα, pGAL4-PPARγ, pGAL4-LXRα) have been cotransfected with the reporter construct. For FXR, FXRE-luc construct with FXR response elements upstream of Firefly luciferase has been used together with an expression construct for human FXR for HepG2 cells transfection. HepG2 cells were then treated with compounds of the invention for 24 h.

[3] = target: T3, human PPARα (Homo sapiens, UniProt Q07869); test: PPARα responsive luciferase reporter gene assay (pGAL4-PPARα / pGL5-UAS 9x) in HepG2 cells; settings: relative activation to fenofibrate 10 µM (100%), HepG2, 24 h, negative value indicates inverse agonism
T3 construct: DNA constructs encoding human LBD domains of human PPARα, PPARγ, of LXRα (pGAL4-PPARα, pGAL4-PPARγ, pGAL4-LXRα); expressed in transfected cells; host or cells: HepG2
T3 sequence (Q07869 239-466 limits assumed): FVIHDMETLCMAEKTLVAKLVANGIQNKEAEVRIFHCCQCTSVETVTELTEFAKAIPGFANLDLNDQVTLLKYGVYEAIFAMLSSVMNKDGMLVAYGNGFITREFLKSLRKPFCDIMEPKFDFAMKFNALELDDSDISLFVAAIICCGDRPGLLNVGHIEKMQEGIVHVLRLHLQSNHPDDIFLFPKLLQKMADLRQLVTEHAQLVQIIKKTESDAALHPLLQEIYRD
Source text: Bezafibrate, GW7647 and WY14643 are known PPARα ligands. […] GW3965 is known high-affinity LXRα ligand. […]
as §1

[4] = target: T4, TGR5 (Homo sapiens, UniProt Q8TDU6); test: TGR5 luciferase reporter assay; settings: relative activation to LCA 10 µM (100%), negative value indicates inverse agonism
T4 sequence (Q8TDU6 1-330): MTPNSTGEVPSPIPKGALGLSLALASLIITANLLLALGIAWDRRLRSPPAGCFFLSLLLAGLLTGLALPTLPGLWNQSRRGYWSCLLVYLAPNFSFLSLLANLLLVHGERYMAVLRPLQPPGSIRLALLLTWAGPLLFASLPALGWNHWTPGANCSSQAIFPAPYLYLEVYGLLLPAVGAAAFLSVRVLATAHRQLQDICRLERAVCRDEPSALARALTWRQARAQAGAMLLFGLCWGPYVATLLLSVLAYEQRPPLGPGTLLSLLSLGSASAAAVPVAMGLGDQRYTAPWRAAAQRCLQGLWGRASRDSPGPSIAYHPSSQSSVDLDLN

[5] = target: T5, human LXRα (Homo sapiens, UniProt Q13133); test: LXRα luciferase reporter gene assay, inhibition of activation by GW3965 (pGAL4-LXRα / pGL5-UAS 9x) in HepG2 cells; settings: HepG2, 24 h; read-out: LXRα antagonism
T5 construct: DNA constructs encoding human LBD domains of human PPARα, PPARγ, of LXRα (pGAL4-PPARα, pGAL4-PPARγ, pGAL4-LXRα); expressed in transfected cells; host or cells: HepG2
T5 sequence (Q13133 209-447 limits assumed): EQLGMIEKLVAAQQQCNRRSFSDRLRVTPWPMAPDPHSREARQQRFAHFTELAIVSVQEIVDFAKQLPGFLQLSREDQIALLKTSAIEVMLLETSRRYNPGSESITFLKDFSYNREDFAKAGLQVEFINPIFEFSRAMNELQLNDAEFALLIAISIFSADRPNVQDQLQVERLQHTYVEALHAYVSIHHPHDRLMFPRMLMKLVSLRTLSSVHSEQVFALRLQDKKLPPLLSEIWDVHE
Description: Bezafibrate, GW7647 and WY14643 are known PPARα ligands. […] GW3965 is known high-affinity LXRα ligand.
Inverse agonistic/antagonistic activities of tested compounds to LXRα receptor activated by the LXRα agonist GW3965(10 µM). […] Negative value indicates inverse agonism.
as §1

Row | SMILES | Emax at 10 µM [1] | Emax at 10 µM [2] | Emax at 10 µM [3] | Emax at 10 µM [4] | inhibition at 10 µM [5]
1 | C[C@@H](Oc1ccc(Oc2cnc3ccc(Cl)cc3n2)cc1)C(=O)O [compound 63, (R)-2-(4-((7-Chloroquinoxalin-2-yl)oxy)phenoxy)propanoic acid] | 2% | -3% | 0% | 4% | 
2 | C[C@@H](Oc1ccc(Oc2cnc3ccc(I)cc3n2)cc1)C(=O)O [compound 68, (R)-2-(4-((7-Iodoquinoxalin-2-yl)oxy)phenoxy)propanoic acid] | 9% | -3% | 49% | 11% | 
3 | C[C@@H](Oc1ccc(Oc2ccc3ccc([N+](=O)[O-])cc3n2)cc1)C(=O)O [compound 50, (R)-2-(4-((7-nitroquinolin-2-yl)oxy)phenoxy)propanoic acid] |  | 0% | 87% |  | 
4 | CCOC(=O)C(C)Oc1ccc(NCc2ccc3c(Cl)cccc3n2)cc1 (stereo not drawn) [compound 85, Ethyl 2-(4-(((5-chloroquinolin-2-yl)methyl)amino)phenoxy)propanoate] | -6% | -1% | 1% | 30% | 
5 | C[C@@H](Oc1ccc(Oc2ccc3ccc(Br)cc3n2)cc1)C(=O)O [compound 39, (R)-2-(4-((7-Bromoquinolin-2-yl)oxy)phenoxy)propanoic acid] | 3% | 4% | 87% | 6% | 43%
6 | CCOC(=O)[C@@H](C)Oc1ccc(Oc2ccc3c(Cl)cccc3n2)cc1 [compound 76, Ethyl (R)-2-(4-((5-chloroquinolin-2-yl)oxy)phenoxy)propanoate] |  | 25% |  |  | 51%
7 | C[C@@H](Oc1ccc(Oc2ccc3c(Cl)cc(Cl)cc3n2)cc1)C(=O)O [compound 38, (R)-2-(4-((5,7-Dichloroquinolin-2-yl)oxy)phenoxy)propanoic acid] | 1% | 14% | 0% | 2% | 41%
8 | COc1ccc2ncc(Oc3ccc(O[C@H](C)C(=O)O)cc3)nc2c1 [compound 70, (R)-2-(4-((7-Methoxyquinoxalin-2-yl)oxy)phenoxy)propanoic acid] | 0% | -2% | 10% |  | 
9 | CC(Oc1ccc(NCc2ccc3c(Cl)cc(Cl)cc3n2)cc1)C(=O)O (stereo not drawn) [compound 84, 2-(4-(((5,7-Dichloroquinolin-2-yl)methyl)amino)phenoxy)propanoic acid] | 1% | -2% | 0% |  | 5%
10 | C[C@@H](Oc1ccc(Oc2ccc3ccc(F)cc3n2)cc1)C(=O)O [compound 41, (R)-2-(4-((7-Fluoroquinolin-2-yl)oxy)phenoxy)propanoic acid] | 7% | 1% | 1% |  | 
11 | CC(Oc1ccc(Nc2cnc3ccc(Cl)cc3n2)cc1)C(=O)O (stereo not drawn) [compound 80, 2-(4-((7-chloroquinoxalin-2-yl)amino)phenoxy)propanoic acid] |  | -1% | 0% |  | 66%
